Values quoted from earlier work, collected in patent US20060199791A1, “Anti-microbial composition comprising a metal ion chelating agent” (AQ+ PLC, priority 2001, published 2006).

Tested on: long term sinus infection
Settings: patient history, infection for some 14 to 15 years
For `O=C(O)c1cn(C2CC2)c2cc(N3CCNCC3)c(F)cc2c1=O` [Cipro], the “response of the sinus infection to earlier antibiotic treatment” value (“response of the sinus infection” for short) is given as “resistant to treatment”. For `CCC[C@@H]1C[C@@H](C(=O)N[C@@H]([C@H]2O[C@H](SC)[C@H](O)[C@@H](O)[C@H]2O)[C@H](C)Cl)N(C)C1` [Clindramycin], the “response of the sinus infection” value is given as “resistant to treatment”. In the case of `CC1(C)S[C@@H]2[C@H](NC(=O)[C@H](N)c3ccc(O)cc3)C(=O)N2[C@H]1C(=O)O` [Trimox], the “response of the sinus infection” value is listed as “resistant to treatment”. For `CC1(C)S[C@@H]2[C@H](NC(=O)COc3ccccc3)C(=O)N2[C@H]1C(=O)O` [Veetids], the “response of the sinus infection” value is given as “resistant to treatment”.
